# According to patent US20250235462A1, “NOVEL CAPSID ASSEMBLY INHIBITORS” (AM SCIENCES INC, priority 2021, published 2025):
# pEC50, pIC50: −log10 of the molar value. Where two headings read alike, the source gives them in different places.
# Key:
# intracellular HBV DNA = experiment: Real-time PCR for intracellular HBV DNA in HepAD38 cells; format: cell-based, hepatitis B virus (HBV); details: Hepatitis B virus, HePAD38, 65 h, treated for 65 hours, intracellular HBV DNA by real-time PCR
# Experimental: HepAD38 cells were cultured in DMEM medium (Welgene) supplemented with 200 unit/mL penicillin, 200 μg/mL streptomycin, and 10% FBS. During maintenance and passage, the cells were cultured together with 0.4 μg/mL tetracycline. Two days before the treatment with compounds for inducing HBV replication was started, the medium was replaced with a tetracycline-free complete growth medium. […]
# HepAD38 cells were treated with a compound for 65 hours and then recovered, and intracellular HBV DNA was extracted therefrom according to the protocol in the DNeasy Blood & Tissue Kit (Qiagen). The primers and probes used to quantify HBV DNA were 5′-[…]-3′, 5′-[…]-3′, and 5′-/56-FAM/TGT CCT GGT/ZEN/[…]/3IABKFQ/-3′. The HBV DNA was amplified by real-time PCR assay using LightCycler 480 (Roche) (J. Virol., 2018, 92(16):e00339-18). All of the processes were confirmed in duplicate.
# [1] = molecular target: Protein (capsid assembly) (Hepatitis B virus genotype D subtype ayw, UniProt P03146); experiment: Protein inhibition (capsid assembly inhibition), Table 1; format: biochemical; details: for inhibition at 30 µM: read-out: Protein % inhibition rate (@30 μM)
# Chain of Protein (capsid assembly) (P03146 whole entry): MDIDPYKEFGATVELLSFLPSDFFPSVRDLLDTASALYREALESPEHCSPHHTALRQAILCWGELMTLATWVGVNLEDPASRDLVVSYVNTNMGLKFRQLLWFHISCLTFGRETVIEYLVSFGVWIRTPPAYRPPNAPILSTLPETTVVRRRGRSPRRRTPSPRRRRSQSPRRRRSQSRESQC
# [2] = Cell viability assay (EZ-Cytox) in HepAD38 cells; format: cell-based; details: human, 65 hours of treatment; for CC50 at 65 h: read-out: Cytotoxicity CC50; for viability at 65 h, 100 µM: read-out: Cytotoxicity % Livability (@100 μM)
# Experimental: HepAD38 cells were cultured for 2 days in Dulbecco's Modified Eagle's medium (Welgene, LM001-05) supplemented with 10% FBS without tetracycline. The cells were seeded in 48-well culture plates (1×10^5 cells/well) and treated with each compound at five concentrations (0 μM (0.8% DMSO as a control), 33 μM, 50 μM, 66 μM, and 100 μM). After 65 hours of treatment, viability was measured using EZ-Cytox cell viability assay kit (Daeil Lab Service) according to the manufacturer's instructions. The absorbance was measured at 450 nm using a spectrophotometer (Spark, Tecan). Here, NVR-3-778 (denoted as NVR) was used as a positive control.
# [3] = NVR value of the same run in brackets, read-out: Protein EC50
Structure (SMILES),pIC50 (intracellular HBV DNA),pEC50 [1],inhibition at 30 µM [1],CC50 at 65 h [2],"viability at 65 h, 100 µM [2]","pEC50 [1, 3]"
"Cc1cccc(NC(=O)N(Cc2nnc3n2CCCCC3)c2ccc3c(c2)OCO3)c1 [Example 1, 1-(Benzo[d][1,3]dioxol-5-yl)-1-((6,7,8,9-tetrahydro-5H-[1,2,4]triazolo[4,3-a]azepin-3-yl)methyl)-3-m-tolylurea]",7.70,5.89,72%,> 100 µM,95%,
"O=C(Nc1ccc(F)c(Cl)c1)N(Cc1nnc2n1CCCCC2)c1ccc2c(c1)OCO2 [Example 2, 1-(Benzo[d][1,3]dioxol-5-yl)-3-(3-chloro-4-fluorophenyl)-1-((6,7,8,9-tetrahydro-5H-[1,2,4]triazolo[4,3-a]azepin-3-yl)methyl)urea]",7.40,,81%,> 100 µM,100%,
"COc1ccc(N(Cc2nnc3n2CCCCC3)C(=O)Nc2ccc(F)c(Cl)c2)cc1 [Example 3, 3-(3-Chloro-4-fluorophenyl)-1-(4-methoxyphenyl)-1-((6,7,8,9-tetrahydro-5H-[1,2,4]triazolo[4,3-a]azepin-3-yl)methyl)urea]",6.72,,89%,> 100 µM,91.9%,5.80
"O=C(Nc1ccc(F)c(Cl)c1)N(Cc1nnc2n1CCOCC2)c1ccc2c(c1)OCO2 [Example 7, 1-(Benzo[d][1,3]dioxol-5-yl)-3-(3-chloro-4-fluorophenyl)-1-((5,6,8,9-tetrahydro-[1,2,4]triazolo[4,3-d][1,4]oxazepin-3-yl)methyl)urea]",7.52,,80%,> 100 µM,96.4%,6.00
"N#Cc1cccc(NC(=O)N(Cc2nnc3n2CCCCC3)c2ccc3c(c2)OCO3)c1 [Example 8, 1-(Benzo[d][1,3]dioxol-5-yl)-3-(3-cyanophenyl)-1-((6,7,8,9-tetrahydro-5H-[1,2,4]triazolo[4,3-a]azepin-3-yl)methyl)urea]",6.57,,83%,> 100 µM,91.6%,5.74
"CC(C)Oc1ccc(N(Cc2nnc3n2CCCCC3)C(=O)Nc2ccc(F)c(Cl)c2)cc1 [Example 12, 3-(3-Chloro-4-fluorophenyl)-1-(4-isopropoxyphenyl)-1-((6,7,8,9-tetrahydro-5H-[1,2,4]triazolo[4,3-a]azepin-3-yl)methyl)urea]",6.96,,95%,> 100 µM,93.2%,5.60
"O=C(Nc1ccc(F)c(Cl)c1)N(Cc1nnc2n1CCCCC2)c1ccc(C(F)(F)F)cc1 [Example 13, 3-(3-Chloro-4-fluorophenyl)-1-((6,7,8,9-tetrahydro-5H-[1,2,4]triazolo[4,3-a]azepin-3-yl)methyl)-1-(4-(trifluoromethyl)phenyl)urea]",6.64,,89%,> 100 µM,106%,5.30
"O=C(Nc1ccc(F)c(Cl)c1)N(Cc1nnc2n1CCCCC2)c1ccc2ncsc2c1 [Example 16, 1-(Benzo[d]thiazol-6-yl)-3-(3-chloro-4-fluorophenyl)-1-((6,7,8,9-tetrahydro-5H-[1,2,4]triazolo[4,3-a]azepin-3-yl)methyl)urea]",6.91,,80.9%,> 100 µM,93.9%,5.66
"O=C(Nc1ccc(F)c(Cl)c1)N(Cc1nnc2n1CCCCC2)c1ccc(F)c(F)c1 [Example 22, 3-(3-Chloro-4-fluorophenyl)-1-(3,4-difluorophenyl)-1-((6,7,8,9-tetrahydro-5H-[1,2,4]triazolo[4,3-a]azepin-3-yl)methyl)urea]",6.40,,43%,> 100 µM,92.9%,5.59
"COc1ccc(N(C(=O)Nc2ccc(F)c(Cl)c2)C(C)c2nnc3n2CCCCC3)cc1 (stereo not shown) [Example 23, 3-(3-Chloro-4-fluorophenyl)-1-(4-methoxyphenyl)-1-(1-(6,7,8,9-tetrahydro-5H-[1,2,4]triazolo[4,3-a]azepin-3-yl)ethyl)urea]",6.49,,47%,> 100 µM,95.1%,5.51
"O=C(Nc1ccc(F)c(Cl)c1)N(Cc1nnc2n1CCOCC2)c1ccnc(O)c1 [Example 46, 3-(3-chloro-4-fluorophenyl)-1-(2-hydroxypyridin-4-yl)-1-((5,6,8,9-tetrahydro-[1,2,4]triazolo[4,3-d][1,4]oxazepin-3-yl)methyl)urea]",< 5.96,,,> 100 µM,90.5%,
"COc1cc(N(Cc2nnc3n2CCOCC3)C(=O)Nc2ccc(F)c(Cl)c2)ccn1 [Example 47, 3-(3-Chloro-4-fluorophenyl)-1-(2-methoxypyridin-4-yl)-1-((5,6,8,9-tetrahydro-[1,2,4]triazolo[4,3-d][1,4]oxazepin-3-yl)methyl)urea]",7.04,,,> 100 µM,81.2%,
"COc1ccc(N(Cc2nnc(C(F)F)n2C)C(=O)Nc2ccc(F)c(Cl)c2)cn1 [Example 48, 3-(3-Chloro-4-fluorophenyl)-1-((5-(difluoromethyl)-4-methyl-4H-1,2,4-triazol-3-yl)methyl)-1-(6-methoxypyridin-3-yl)urea]",< 5.96,,,> 100 µM,102%,
"COc1ccc(N(Cc2nnc(C(F)(F)F)n2C)C(=O)Nc2ccc(F)c(Cl)c2)cn1 [Example 49, 3-(3-Chloro-4-fluorophenyl)-1-(6-methoxypyridin-3-yl)-1-((4-methyl-5-(trifluoromethyl)-4H-1,2,4-triazol-3-yl)methyl)urea]",6.36,,,> 100 µM,55.9%,
"COc1ccc(N(Cc2nnc(C(F)(F)F)n2CCO)C(=O)Nc2ccc(F)c(Cl)c2)cn1 [Example 50, 3-(3-Chloro-4-fluorophenyl)-1-((4-(2-hydroxyethyl)-5-(trifluoromethyl)-4H-1,2,4-triazol-3-yl)methyl)-1-(6-methoxypyridin-3-yl)urea]",< 5.96,,,> 100 µM,101%,
"COCCn1c(CN(C(=O)Nc2ccc(F)c(Cl)c2)c2ccc(OC)nc2)nnc1C(F)F [Example 51, 3-(3-Chloro-4-fluorophenyl)-1-((5-(difluoromethyl)-4-(2-methoxyethyl)-4H-1,2,4-triazol-3-yl)methyl)-1-(6-methoxypyridin-3-yl)urea]",< 5.96,,,> 100 µM,84.2%,
"COCCn1c(CN(C(=O)Nc2ccc(F)c(Cl)c2)c2ccc(OC)nc2)nnc1C(F)(F)F [Example 52, 3-(3-Chloro-4-fluorophenyl)-1-((4-(2-methoxyethyl)-5-(trifluoromethyl)-4H-1,2,4-triazol-3-yl)methyl)-1-(6-methoxypyridin-3-yl)urea]",< 5.96,,,> 100 µM,55.4%,
"COc1ccc(N(Cc2nnc(C(F)F)n2CCO)C(=O)Nc2ccc(F)c(Cl)c2)cn1 [Example 53, 3-(3-Chloro-4-fluorophenyl)-1-((5-(difluoromethyl)-4-(2-hydroxyethyl)-4H-1,2,4-triazol-3-yl)methyl)-1-(6-methoxypyridin-3-yl)urea]",< 5.96,,,> 100 µM,99.1%,
